Measured values reported in the supplement of paper PMC10627819.

Columns and labels:
[1] = tested on: B. subtilis 168; assay: fitness (endpoint OD595 vs no drug) (fraction); higher = more growth
Procedure, shortened: (§1)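 Plates with 384 wells were inoculated at OD595 0.01 using 30 µl of TSB, LB Lennox or CY, or 55 µl for S. pneumoniae. Incubation was at 37 °C, with OD595 measured every 30 min for 14 h. Fitness is the stationary-phase transition optical density over the robust mean of no-drug control wells, after first-reading background subtraction; it is capped at 1.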

[2] = tested on: S. aureus DSM 20231; assay: as above
Procedure, shortened: as §1

[3] = tested on: S. aureus Newman; assay: Bliss interaction score (quartile over a dose matrix) (fitness difference); higher = more antagonism (negative = synergy)
Procedure, shortened: (§2)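 Growth was read as OD595 when cultures entered stationary phase, and each value was divided by the plate's robust no-drug mean and capped at 1. This normalised ratio is the fitness value, and fitness for each single drug came from the combination data. The Bliss score subtracts the expected fitness, taken as the product, from the observed fitness and is given as quartiles across technical, biological and donor/recipient replicates.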

[4] = tested on: B. subtilis 168; assay: as above
Procedure, shortened: as §2

[5] = tested on: S. pneumoniae D39V; assay: as above
Procedure, shortened: as §2

[6] = tested on: S. aureus DSM 20231; assay: as above
Procedure, shortened: as §2

[7] = tested on: S. aureus Newman; assay: fitness (endpoint OD595 vs no drug) (fraction); higher = more growth; details: main component drawn
Procedure, shortened: as §1

[8] = tested on: S. pneumoniae D39V; assay: as above; details: main component drawn
Procedure, shortened: as §1
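Throughout, for Bliss interaction score (quartile over a dose matrix): first quartile when negative (synergy) and third quartile when positive (antagonism).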

CC[C@H]1OC(=O)[C@H](C)[C@@H](O[C@H]2C[C@@](C)(OC)[C@@H](O)[C@H](C)O2)[C@H](C)[C@@H](O[C@@H]2O[C@H](C)C[C@H](N(C)C)[C@H]2O)[C@](C)(O)C[C@@H](C)CN(C)[C@H](C)[C@@H](O)[C@]1(C)O [Azithromycin] + CC(=O)NC[C@H]1CN(c2ccc(N3CCOCC3)c(F)c2)C(=O)O1 [Linezolid]
fitness
Details	first compound 0.125 µg/mL	first compound 0.25 µg/mL	first compound 0.5 µg/mL	first compound 1 µg/mL
[1], partner 0.25 µg/mL	–	–	0.106	–
[1], partner 0.5 µg/mL	–	0.0659	0.0597	0.0407
[2], partner 0.125 µg/mL	0.768	0.744	–	–
[2], partner 0.25 µg/mL	0.608	0.557	0.191	–
[2], partner 0.5 µg/mL	–	0.151	0.0625	–

one replicate
Details	fitness
[1], first compound 0.5 µg/mL, partner 0.0625 µg/mL	0.759
[1], first compound 1 µg/mL, partner 0.0625 µg/mL	0.287
[1], first compound 2 µg/mL, partner 0.0625 µg/mL	0.023
[1], first compound 2 µg/mL, partner 0.125 µg/mL	0
[1], first compound 2 µg/mL, partner 0.25 µg/mL	0.029
[2], first compound 0.125 µg/mL, partner 1 µg/mL	0.0489
[2], first compound 0.25 µg/mL, partner 1 µg/mL	0.0402
[2], first compound 0.5 µg/mL, partner 1 µg/mL	0.0193

Details	Bliss interaction score
[3]	-0.0582
[4]	-0.0849
[5]	-0.0318
[6]	-0.0673

CC[C@H]1OC(=O)[C@H](C)[C@@H](O[C@H]2C[C@@](C)(OC)[C@@H](O)[C@H](C)O2)[C@H](C)[C@@H](O[C@@H]2O[C@H](C)C[C@H](N(C)C)[C@H]2O)[C@](C)(O)C[C@@H](C)CN(C)[C@H](C)[C@@H](O)[C@]1(C)O [Azithromycin] + CCC[C@@H]1C[C@@H](C(=O)N[C@@H]([C@H]2O[C@H](SC)[C@H](O)[C@@H](O)[C@H]2O)[C@@H](C)O)N(C)C1 [Lincomycin]
fitness
Details	partner 0.1 µg/mL	partner 0.2 µg/mL	partner 0.4 µg/mL	partner 0.8 µg/mL	partner 1.6 µg/mL
[1], first compound 0.25 µg/mL	0.777	0.78	0.833	0.865	0.887
[1], first compound 0.5 µg/mL	0.82	0.817	0.876	0.797	0.77
[1], first compound 1 µg/mL	0.714	0.734	–	–	–
[2], first compound 0.125 µg/mL	0.873	0.754	–	–	–
[2], first compound 0.25 µg/mL	0.89	0.583	–	–	–
[2], first compound 0.5 µg/mL	0.386	0.147	0.106	–	–

[1], first compound 2 µg/mL, one replicate
Details	fitness
partner 0.1 µg/mL	0.401
partner 0.2 µg/mL	0.24
partner 0.4 µg/mL	0.202

Details	Bliss interaction score
[3]	-0.105
[4]	0.098
[5]	0.0603
[6]	-0.0854

CC[C@H]1OC(=O)[C@H](C)[C@@H](O[C@H]2C[C@@](C)(OC)[C@@H](O)[C@H](C)O2)[C@H](C)[C@@H](O[C@@H]2O[C@H](C)C[C@H](N(C)C)[C@H]2O)[C@](C)(O)C[C@@H](C)CN(C)[C@H](C)[C@@H](O)[C@]1(C)O [Azithromycin] + COc1cc(Cc2cnc(N)nc2N)cc(OC)c1OC [Trimethoprim]
fitness
Details	partner 0.125 µg/mL	partner 0.25 µg/mL	partner 0.5 µg/mL	partner 1 µg/mL
[1], first compound 0.25 µg/mL	0.669	0.541	0.452	–
[1], first compound 0.5 µg/mL	0.471	–	–	–
[1], first compound 2 µg/mL	–	0.0144	0.0327	–
[2], first compound 0.125 µg/mL	0.789	0.64	0.538	0.0427
[2], first compound 0.25 µg/mL	0.782	0.658	0.562	0.03
[2], first compound 0.5 µg/mL	0.38	–	0.292	0.0131

fitness, [1], one replicate
Details	partner 0.1 µg/mL	partner 0.125 µg/mL	partner 0.2 µg/mL	partner 0.4 µg/mL	partner 1 µg/mL	partner 2 µg/mL
first compound 0.25 µg/mL	–	–	–	–	0.106	0.0698
first compound 0.5 µg/mL	0.365	–	0.257	0.111	0.051	0.0526
first compound 1 µg/mL	0.144	–	0.0549	0.0194	0.0321	0.0311
first compound 2 µg/mL	0.0143	0.0446	0.0451	0.0182	–	–

Details	Bliss interaction score
[3]	0.175
[4]	-0.194
[5]	-0.0811
[6]	0.171

CNC(C)C1CCC(N)C(OC2C(N)CC(N)C(OC3OCC(C)(O)C(NC)C3O)C2O)O1 (stereo not given) [Gentamicin] + Cc1ncc([N+](=O)[O-])n1CCO [Metronidazole]
fitness
Details	partner 0.625 µg/mL	partner 1.25 µg/mL	partner 2.5 µg/mL
[1], first compound 0.0625 µg/mL, main component drawn	0.897	0.926	0.922
[1], first compound 0.25 µg/mL, main component drawn	0.0729	–	0.0383
[7], first compound 0.375 µg/mL, one replicate	0.94	≥ 1	≥ 1
[7], first compound 0.75 µg/mL, one replicate	0.944	≥ 1	≥ 1
[7], first compound 1.5 µg/mL, one replicate	0.951	≥ 1	≥ 1

fitness
Details	partner 0.625 µg/mL	partner 0.781 µg/mL	partner 1.073 µg/mL	partner 1.25 µg/mL	partner 1.562 µg/mL	partner 2.145 µg/mL	partner 2.5 µg/mL	partner 3.124 µg/mL	partner 4.29 µg/mL	partner 5 µg/mL
[7], first compound 0.5 µg/mL	0.995	0.92	–	0.979	0.911	–	≥ 1	0.913	–	–
[7], first compound 1 µg/mL	≥ 1	≥ 1	–	0.974	≥ 1	–	0.986	≥ 1	–	–
[7], first compound 2 µg/mL	≥ 1	≥ 1	–	0.981	≥ 1	–	≥ 1	≥ 1	–	–
[8], first compound 2 µg/mL	–	–	0.983	0.985	–	0.864	≥ 1	–	0.8	0.996
[8], first compound 4 µg/mL	–	–	0.976	0.992	–	0.987	≥ 1	–	0.827	0.986
[8], first compound 8 µg/mL	–	–	0.98	0.955	–	0.96	0.959	–	0.942	0.959

main component drawn
Details	Bliss interaction score
[3]	0.0412
[4]	-0.0531
[5]	0.0587
[6]	0.0225
